From ChEMBL document CHEMBL1201862, “PubChem BioAssay data set” (2004)
Calls of active or inactive are those of the source.

Experiments:
[1] = inhibitors of SNCA 5'UTR-driven reporter translation, confirmation, H4 neuroglioma cells, luminescence (AID 1988); type: functional, cell-based
[2] = biological target: Glucose-6-phosphate 1-dehydrogenase (Homo sapiens, UniProt P11413); test: human G6PD enzyme inhibitors, dose response, selectivity assay for P. falciparum G6PD inhibitor project, biochemical, fluorescence (AID 504792); type: functional
[3] = inhibitors of firefly luciferase expression or activity, dose response, H4 neuroglioma cells, luminescence (AID 1990); type: functional, cell-based
[4] = biological target: T1, Microphthalmia-associated transcription factor (Homo sapiens, UniProt O75030); test: TRPM1 promoter luciferase signal decrease, dose response, MITF inhibitor project, cell-based, SK-MEL-5, cherry-picked, set 3 (AID 493073); type: functional
T1 sequence (O75030 whole entry): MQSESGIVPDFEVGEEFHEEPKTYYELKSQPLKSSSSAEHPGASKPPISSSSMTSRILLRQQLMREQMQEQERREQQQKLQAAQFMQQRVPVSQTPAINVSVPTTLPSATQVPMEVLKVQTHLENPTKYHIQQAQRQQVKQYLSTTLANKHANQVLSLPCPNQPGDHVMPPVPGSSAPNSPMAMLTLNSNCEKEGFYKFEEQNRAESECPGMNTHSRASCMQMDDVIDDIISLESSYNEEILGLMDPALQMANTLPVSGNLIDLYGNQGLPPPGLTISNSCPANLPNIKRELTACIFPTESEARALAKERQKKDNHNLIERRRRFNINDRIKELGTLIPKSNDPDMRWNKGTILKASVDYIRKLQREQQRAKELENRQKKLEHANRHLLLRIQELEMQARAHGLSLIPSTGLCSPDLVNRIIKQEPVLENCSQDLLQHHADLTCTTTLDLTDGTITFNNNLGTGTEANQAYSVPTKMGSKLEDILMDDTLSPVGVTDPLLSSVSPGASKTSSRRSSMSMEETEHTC

[5] = Luminescence Cell-Based Dose Response HTS to Identify Inhibitors of 5'UTR Stem-Loop Driven Prion Protein mRNA Translation in H4 Neuroglioblastoma Cells. [Related pubchem assays: 1827 (Project Summary), 1813 (Primary HTS)]; type: functional
Aminopeptidase N = biological target: T2, Aminopeptidase N (Plasmodium falciparum FcB1/Columbia, UniProt O96935); test: P. falciparum M1AAP inhibitors, biochemical, fluorogenic H-Leu-NHMec substrate, 1536-well (AID 1445); parameters: species or system Plasmodium falciparum 3D7, 3D7
T2 sequence (O96935 whole entry): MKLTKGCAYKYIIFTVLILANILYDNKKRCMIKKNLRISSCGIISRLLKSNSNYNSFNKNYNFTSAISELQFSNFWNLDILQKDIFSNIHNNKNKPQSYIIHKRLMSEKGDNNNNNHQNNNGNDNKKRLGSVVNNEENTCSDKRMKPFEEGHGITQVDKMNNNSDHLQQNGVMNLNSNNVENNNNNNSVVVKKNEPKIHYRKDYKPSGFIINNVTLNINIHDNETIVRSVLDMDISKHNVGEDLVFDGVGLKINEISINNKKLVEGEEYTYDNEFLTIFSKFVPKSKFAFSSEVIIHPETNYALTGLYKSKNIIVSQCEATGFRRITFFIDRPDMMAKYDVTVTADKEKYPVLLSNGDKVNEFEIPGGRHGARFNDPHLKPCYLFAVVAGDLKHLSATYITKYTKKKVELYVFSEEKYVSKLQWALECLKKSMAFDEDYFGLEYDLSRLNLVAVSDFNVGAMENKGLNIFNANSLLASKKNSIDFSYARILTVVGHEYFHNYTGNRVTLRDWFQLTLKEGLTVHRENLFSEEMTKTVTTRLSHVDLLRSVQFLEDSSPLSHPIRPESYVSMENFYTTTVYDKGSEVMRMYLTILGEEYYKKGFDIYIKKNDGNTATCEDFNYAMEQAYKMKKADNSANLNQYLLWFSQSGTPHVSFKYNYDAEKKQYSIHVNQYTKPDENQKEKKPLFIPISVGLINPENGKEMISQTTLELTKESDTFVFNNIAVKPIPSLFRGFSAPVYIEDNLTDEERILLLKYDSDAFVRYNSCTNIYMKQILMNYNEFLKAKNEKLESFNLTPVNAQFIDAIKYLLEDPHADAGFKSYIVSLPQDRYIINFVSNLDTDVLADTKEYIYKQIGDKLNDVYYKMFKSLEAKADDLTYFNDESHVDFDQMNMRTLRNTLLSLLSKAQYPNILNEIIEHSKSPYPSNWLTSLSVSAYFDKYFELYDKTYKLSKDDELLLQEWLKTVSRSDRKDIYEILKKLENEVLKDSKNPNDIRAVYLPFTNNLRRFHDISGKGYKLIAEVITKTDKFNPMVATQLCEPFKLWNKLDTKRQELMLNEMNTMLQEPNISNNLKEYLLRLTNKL

[6] = biological target: T3, Polyadenylate-binding protein 1 (Homo sapiens, UniProt P11940); test: PABP1 MLLE–PAM2 interaction inhibitors, dose response, miRNA deadenylation inhibitor project, biochemical, fluorescence polarization, Cy5-PAM2 peptide, secondary (AID 602260); type: functional; conditions: read-out: IC50_Mean
[7] = biological target: T3, Polyadenylate-binding protein 1; test: PABP1 MLLE–PAM2 binding inhibitor potency, dose response, biochemical, fluorescence polarization, FITC-PAM2 peptide (AID 602259); type: functional; conditions: read-out: IC50_Mean
[8] = biological target: T4, Short transient receptor potential channel 4 (Mus musculus, UniProt Q9QUQ5); test: mouse TRPC4 channel inhibitors, dose response, cell-based, HEK293 TRPC4/mu-opioid, Fluo-4 calcium (AID 434942); type: functional;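 also: potency of inhibitors blocking the TRPC4 calcium response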
T4 sequence (Q9QUQ5 whole entry): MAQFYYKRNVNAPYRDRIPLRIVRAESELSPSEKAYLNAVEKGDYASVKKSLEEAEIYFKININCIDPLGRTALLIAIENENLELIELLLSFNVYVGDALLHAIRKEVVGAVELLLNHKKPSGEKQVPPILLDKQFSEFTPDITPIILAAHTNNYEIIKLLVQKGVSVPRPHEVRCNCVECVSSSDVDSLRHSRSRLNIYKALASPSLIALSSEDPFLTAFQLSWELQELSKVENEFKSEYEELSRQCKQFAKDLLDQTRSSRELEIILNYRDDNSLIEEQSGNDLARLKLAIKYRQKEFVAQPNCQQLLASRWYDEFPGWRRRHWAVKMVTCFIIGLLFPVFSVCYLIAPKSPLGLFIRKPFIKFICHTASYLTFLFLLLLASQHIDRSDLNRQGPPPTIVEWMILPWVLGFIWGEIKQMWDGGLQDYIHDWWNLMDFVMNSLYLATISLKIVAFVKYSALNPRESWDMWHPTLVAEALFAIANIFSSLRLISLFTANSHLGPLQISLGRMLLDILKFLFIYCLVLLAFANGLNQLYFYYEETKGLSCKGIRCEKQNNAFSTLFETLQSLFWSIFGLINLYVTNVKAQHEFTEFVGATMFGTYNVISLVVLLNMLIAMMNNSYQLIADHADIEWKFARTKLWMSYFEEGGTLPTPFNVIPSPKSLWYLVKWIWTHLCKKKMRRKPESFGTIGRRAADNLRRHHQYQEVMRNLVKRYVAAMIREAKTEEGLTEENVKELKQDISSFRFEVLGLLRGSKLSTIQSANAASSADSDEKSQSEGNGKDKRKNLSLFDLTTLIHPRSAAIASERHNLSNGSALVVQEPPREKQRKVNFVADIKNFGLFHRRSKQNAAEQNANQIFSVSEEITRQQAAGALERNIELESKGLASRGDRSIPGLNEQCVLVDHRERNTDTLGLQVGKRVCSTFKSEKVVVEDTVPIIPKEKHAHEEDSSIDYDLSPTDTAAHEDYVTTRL

HEK293 = test: inhibitors of LMP1-driven NF-kB reporter, dose response, cell-based, HEK293, luciferase, cherry-pick (AID 588343); type: functional; conditions: Homo sapiens
Leucine aminopeptidase = biological target: T5, Leucine aminopeptidase (Plasmodium falciparum 3D7, UniProt Q8IL11); test: P. falciparum M17LAP inhibitors, primary screen, biochemical, fluorogenic H-Leu-NHMec substrate, 1536-well (AID 1619); type: functional
T5 sequence (Q8IL11 whole entry): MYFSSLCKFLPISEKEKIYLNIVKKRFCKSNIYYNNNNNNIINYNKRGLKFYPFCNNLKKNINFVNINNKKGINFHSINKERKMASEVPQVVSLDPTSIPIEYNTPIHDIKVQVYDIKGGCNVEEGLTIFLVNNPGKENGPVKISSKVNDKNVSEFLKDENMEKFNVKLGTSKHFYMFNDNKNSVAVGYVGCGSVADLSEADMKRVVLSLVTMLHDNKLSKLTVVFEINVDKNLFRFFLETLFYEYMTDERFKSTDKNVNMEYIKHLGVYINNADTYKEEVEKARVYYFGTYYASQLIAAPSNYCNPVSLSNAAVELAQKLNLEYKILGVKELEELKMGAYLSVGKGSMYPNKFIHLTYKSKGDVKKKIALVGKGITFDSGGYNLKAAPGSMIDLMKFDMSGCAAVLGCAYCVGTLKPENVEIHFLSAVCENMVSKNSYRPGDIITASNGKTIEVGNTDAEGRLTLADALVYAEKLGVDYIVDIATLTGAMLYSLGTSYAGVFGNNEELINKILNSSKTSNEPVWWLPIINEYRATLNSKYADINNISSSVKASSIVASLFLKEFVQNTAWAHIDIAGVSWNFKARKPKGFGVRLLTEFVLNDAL

Fatty acid synthase [9] = biological target: T6, Fatty acid synthase (Homo sapiens, UniProt P49327); test: FAS thioesterase domain inhibitors, dose response, biochemical, kinetic fluorescence intensity (AID 624326); type: functional;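 also: rate of fluorescence rise from hydrolysis of a fluorogenic O-methyl fluorescein ester substrate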
Fatty acid synthase [10] = biological target: T6, Fatty acid synthase; test: FAS thioesterase domain inhibitors, dose response, biochemical, endpoint fluorescence intensity, uHTS hits (AID 624327); type: functional;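 also: fluorescence from hydrolysis of an O-methyl fluorescein acyl ester substrate by the enzyme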
[11] = NIH-3T3 fibroblast cytotoxicity, dose response, cytotoxicity control, cell-based, fluorescence, Alamar Blue, secondary assay (AID 2327); type: functional;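 also: NIH-3T3 mouse fibroblasts cultured with fluconazole at 8 µg/mL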
cells [12] = type: functional, cell-based
[13] = THP-1 cell cytotoxicity, dose response, cytotoxicity control for non-replicating M. tuberculosis project (AID 489025); type: functional
[14] = Vero E6 cell cytotoxicity, dose response, cytotoxicity control for non-replicating M. tuberculosis project, secondary assay (AID 492998); type: functional, VeroE6; conditions: Vero C1008
[15] = C. albicans growth with fluconazole, confirmation, fluorescence, retest (AID 2467); type: functional, cell-based
[16] = HepG2 cell cytotoxicity, dose response, cytotoxicity control for non-replicating M. tuberculosis project (AID 489018); type: functional; conditions: Mycobacterium tuberculosis
cells [17] = type: functional, cell-based; remark: listed apart in the source

T3 sequence (P11940 whole entry): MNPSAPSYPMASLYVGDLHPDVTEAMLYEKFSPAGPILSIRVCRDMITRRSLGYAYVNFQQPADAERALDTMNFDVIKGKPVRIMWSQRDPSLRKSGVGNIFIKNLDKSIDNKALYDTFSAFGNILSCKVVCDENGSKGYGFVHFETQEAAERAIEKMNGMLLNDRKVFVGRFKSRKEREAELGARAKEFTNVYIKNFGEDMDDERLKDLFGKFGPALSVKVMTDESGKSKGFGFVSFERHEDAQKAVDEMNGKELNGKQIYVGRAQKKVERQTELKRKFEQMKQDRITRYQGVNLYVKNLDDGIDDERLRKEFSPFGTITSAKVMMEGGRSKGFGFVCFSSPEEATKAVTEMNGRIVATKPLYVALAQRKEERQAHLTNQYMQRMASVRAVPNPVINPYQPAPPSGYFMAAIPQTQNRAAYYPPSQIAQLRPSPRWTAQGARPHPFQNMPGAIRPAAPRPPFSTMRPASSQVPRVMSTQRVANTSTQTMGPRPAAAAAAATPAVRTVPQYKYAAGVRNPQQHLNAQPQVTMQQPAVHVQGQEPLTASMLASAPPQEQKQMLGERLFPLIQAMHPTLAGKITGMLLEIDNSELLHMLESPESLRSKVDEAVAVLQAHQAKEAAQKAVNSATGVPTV
T6 sequence (P49327 whole entry, the tested form may be a part): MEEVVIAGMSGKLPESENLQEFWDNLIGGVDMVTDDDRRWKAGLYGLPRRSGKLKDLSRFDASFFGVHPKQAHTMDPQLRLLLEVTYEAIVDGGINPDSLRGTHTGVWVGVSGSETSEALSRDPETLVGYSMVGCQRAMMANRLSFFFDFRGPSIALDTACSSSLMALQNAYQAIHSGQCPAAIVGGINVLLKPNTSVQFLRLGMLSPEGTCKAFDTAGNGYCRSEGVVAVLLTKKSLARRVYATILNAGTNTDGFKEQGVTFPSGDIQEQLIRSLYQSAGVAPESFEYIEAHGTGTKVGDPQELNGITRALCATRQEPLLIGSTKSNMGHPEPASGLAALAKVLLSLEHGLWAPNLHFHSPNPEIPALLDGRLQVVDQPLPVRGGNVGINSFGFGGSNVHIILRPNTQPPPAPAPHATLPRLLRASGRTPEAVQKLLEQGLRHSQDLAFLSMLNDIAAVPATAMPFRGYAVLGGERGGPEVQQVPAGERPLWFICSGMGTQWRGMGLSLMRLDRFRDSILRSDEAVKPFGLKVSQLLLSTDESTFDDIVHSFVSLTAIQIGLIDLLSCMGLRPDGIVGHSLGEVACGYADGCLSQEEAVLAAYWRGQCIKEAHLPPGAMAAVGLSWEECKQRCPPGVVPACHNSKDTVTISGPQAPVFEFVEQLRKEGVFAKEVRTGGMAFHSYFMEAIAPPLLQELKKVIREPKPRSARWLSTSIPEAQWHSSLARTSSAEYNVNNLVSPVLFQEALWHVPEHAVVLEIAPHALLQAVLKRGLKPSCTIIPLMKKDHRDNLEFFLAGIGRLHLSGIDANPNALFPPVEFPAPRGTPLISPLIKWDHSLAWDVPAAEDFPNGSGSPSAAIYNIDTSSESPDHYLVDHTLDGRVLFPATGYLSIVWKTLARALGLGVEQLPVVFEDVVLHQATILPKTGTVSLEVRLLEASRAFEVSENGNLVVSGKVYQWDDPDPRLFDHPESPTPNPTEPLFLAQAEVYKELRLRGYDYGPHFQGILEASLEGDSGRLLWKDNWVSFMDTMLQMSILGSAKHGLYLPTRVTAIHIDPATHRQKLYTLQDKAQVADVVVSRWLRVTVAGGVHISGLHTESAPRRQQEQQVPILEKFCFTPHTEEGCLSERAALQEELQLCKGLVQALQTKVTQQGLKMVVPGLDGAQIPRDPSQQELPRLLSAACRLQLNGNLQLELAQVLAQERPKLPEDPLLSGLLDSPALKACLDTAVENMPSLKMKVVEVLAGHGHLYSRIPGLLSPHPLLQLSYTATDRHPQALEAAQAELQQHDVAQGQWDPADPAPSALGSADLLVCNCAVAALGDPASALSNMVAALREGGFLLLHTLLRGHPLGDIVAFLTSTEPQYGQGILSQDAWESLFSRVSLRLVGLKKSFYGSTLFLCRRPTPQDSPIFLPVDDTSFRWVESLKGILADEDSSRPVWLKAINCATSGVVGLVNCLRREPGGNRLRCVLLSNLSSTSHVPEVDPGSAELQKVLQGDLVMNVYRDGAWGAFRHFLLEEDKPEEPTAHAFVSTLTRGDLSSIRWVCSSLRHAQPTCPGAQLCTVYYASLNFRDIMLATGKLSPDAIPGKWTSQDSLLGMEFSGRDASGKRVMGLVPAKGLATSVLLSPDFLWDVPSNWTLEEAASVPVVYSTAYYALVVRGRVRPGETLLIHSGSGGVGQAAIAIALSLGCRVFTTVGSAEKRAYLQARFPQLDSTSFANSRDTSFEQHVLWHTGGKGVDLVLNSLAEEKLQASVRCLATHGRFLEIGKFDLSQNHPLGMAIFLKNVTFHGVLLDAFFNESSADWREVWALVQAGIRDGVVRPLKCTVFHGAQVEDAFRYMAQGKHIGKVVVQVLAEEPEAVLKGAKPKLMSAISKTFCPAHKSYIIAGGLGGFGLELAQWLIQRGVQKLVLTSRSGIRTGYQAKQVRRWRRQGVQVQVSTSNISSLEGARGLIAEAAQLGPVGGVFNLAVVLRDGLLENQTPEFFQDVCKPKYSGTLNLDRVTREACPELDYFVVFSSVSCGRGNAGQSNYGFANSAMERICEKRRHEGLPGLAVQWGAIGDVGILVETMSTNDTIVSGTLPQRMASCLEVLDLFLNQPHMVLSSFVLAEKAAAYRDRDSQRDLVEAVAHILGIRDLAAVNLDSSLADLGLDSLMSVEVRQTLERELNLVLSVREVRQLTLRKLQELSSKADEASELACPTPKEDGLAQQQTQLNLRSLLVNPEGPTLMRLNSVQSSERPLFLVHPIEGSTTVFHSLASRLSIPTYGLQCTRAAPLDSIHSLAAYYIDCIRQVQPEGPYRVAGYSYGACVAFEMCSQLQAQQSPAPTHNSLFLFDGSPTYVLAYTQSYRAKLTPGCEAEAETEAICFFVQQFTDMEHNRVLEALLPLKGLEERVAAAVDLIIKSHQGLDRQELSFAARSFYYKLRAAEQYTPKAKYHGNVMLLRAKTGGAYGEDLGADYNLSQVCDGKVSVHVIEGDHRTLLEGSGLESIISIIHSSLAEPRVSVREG
Sequence of Glucose-6-phosphate 1-dehydrogenase (P11413 whole entry): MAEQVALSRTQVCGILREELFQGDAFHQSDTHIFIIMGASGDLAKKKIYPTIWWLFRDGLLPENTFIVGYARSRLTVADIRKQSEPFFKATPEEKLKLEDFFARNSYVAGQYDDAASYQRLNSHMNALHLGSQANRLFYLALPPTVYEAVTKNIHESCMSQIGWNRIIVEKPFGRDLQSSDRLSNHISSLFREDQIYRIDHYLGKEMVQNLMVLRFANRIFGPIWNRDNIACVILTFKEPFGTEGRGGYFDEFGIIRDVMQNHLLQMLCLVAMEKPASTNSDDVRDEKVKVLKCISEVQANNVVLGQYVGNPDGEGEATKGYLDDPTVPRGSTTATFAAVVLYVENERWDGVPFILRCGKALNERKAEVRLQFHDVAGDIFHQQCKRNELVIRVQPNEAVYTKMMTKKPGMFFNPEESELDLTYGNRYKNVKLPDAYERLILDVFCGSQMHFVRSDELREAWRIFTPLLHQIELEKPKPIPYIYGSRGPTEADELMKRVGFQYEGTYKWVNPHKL

CCN1CCCC1CNC(=O)c1ccc2c(c1)NC(=O)/C(=C\c1ccc(C)cc1)S2 (stereo unspecified)
EC50 [1]: > 120 µM (not active)
IC50 [2]: > 80 µM (inactive)
EC50 [3]: > 120 µM (not active)
AC50 [4]: 18.9 µM (active)
EC50 [5]: 16 µM (active)

Cc1ncc(CO)c(/C=N/NC(=O)c2ccc(Br)cc2)c1O
IC50 (Aminopeptidase N): 14.4 µM (active)

Cc1ccc(C2CC2C(=O)NN=C(S)Nc2ccc(Cl)cc2)cc1 (stereo unspecified)
IC50 [6]: > 66 µM (inactive)
IC50 [7]: > 66 µM (inactive)

CCCn1c(=N)n(CC(=O)C(C)(C)C)c2ccccc21
EC50 [8]: 5.31 µM (active)

O=C(CCS(=O)(=O)c1ccccc1)Nc1nccs1
AC50 (HEK293): 48.6 µM (active)

Cc1c(OCc2nn[nH]n2)ccc2c(-c3ccccc3)cc(=O)oc12
IC50 (Leucine aminopeptidase): 95.1 µM (active)
IC50 (Fatty acid synthase [9]): 1.61 µM (active)
IC50 (Fatty acid synthase [10]): 1.59 µM (active)

O=C(N/N=C/c1cc(Br)ccc1O)c1ccccc1Cl
EC50 [11]: > 160 µM (inactive)
EC50 (cells [12]): > 350 µM (not active)
CC50 [13]: 2.16 µM (active)
CC50 [14]: 6.98 µM (active)
IC50 (Aminopeptidase N): 8.06 µM (active)
EC50 [15]: > 38 µM (not active)
CC50 [16]: 8.07 µM (active)
AC50 (HEK293): 18.9 µM (active)
EC50 (cells [17]): 103 µM (active)

O=C(O)CCC(=O)Nc1sc2c(c1C(=O)Nc1cccc3ccccc13)CCCCC2
IC50 (Leucine aminopeptidase): 51 µM (active)

C(=N\Nc1nc2ccccc2[nH]1)/c1cccc2nccnc12
EC50 [1]: 5.54 µM (active)
EC50 (cells [12]): > 350 µM (not active)
EC50 [3]: 18.5 µM (active)
AC50 (HEK293): 105 µM (active)
EC50 (cells [17]): > 350 µM (not active)
EC50 [5]: 9.69 µM (active)

O=C(O)CCCC(=O)N1N=C(c2c(O)nc3ccc(Cl)cc3c2-c2ccccc2)CC1c1cccs1 (stereo unspecified)
IC50 (Aminopeptidase N): 20.3 µM (active)

CC(C)(C)C1CCc2c(C(=O)NNC(=O)CCC(=O)O)csc2C1 (stereo unspecified)
IC50 (Leucine aminopeptidase): 14.5 µM (active)
